Structures are written as SMILES. Where only a bound is given, the exact number is not on record here.

The target of the test is T1, ALK (baculovirus expressed human ALK kinase domain F1098-K1410) (Homo sapiens, UniProt Q9UM73).
T1 construct: baculovirus expressed human ALK kinase domain F1098-K1410; made in house
T1 sequence (Q9UM73 1098-1410): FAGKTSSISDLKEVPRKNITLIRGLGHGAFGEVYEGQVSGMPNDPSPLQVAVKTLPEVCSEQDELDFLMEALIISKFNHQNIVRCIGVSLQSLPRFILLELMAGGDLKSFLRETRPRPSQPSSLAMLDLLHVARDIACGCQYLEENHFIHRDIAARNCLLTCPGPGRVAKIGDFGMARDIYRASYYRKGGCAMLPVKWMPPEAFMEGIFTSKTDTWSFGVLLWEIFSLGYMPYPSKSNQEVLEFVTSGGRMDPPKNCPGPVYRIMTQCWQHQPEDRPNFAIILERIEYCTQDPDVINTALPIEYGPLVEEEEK
Put plainly: Luciferase-Coupled Chemiluminescent Kinase assay (LCCA), ALK biochemical activity. The conditions noted are these: inhibition of ALK; mean values; 1 μM ATP, 4 μM poly-AEKY, 12 nM ALK, 2 hours ambient temperature. The protocol: ALK biochemical activity was assessed using a Luciferase-Coupled Chemiluminescent Kinase assay (LCCA) format in which kinase activity was measured as the percent ATP remaining following the kinase reaction. ATP remaining after the kinase reaction was detected by luciferase-luciferin-coupled chemiluminescence.
The reaction was initiated by mixing test compounds, 1 μM ATP, 4 μM poly-AEKY and 12 nM ALK (baculovirus expressed human ALK kinase domain F1098-K1410) in a 20 μL assay buffer ([…] pH 7.5, 10 mM MgCl2, 0.02% Triton X-100, 100 mM DTT, 2 mM MnCl2). The mixture was incubated at ambient temperature for 2 hours after which 20 μL luciferase-luciferin mix was added and the chemiluminescent signal read using a Wallac Victor^2 reader. The luciferase-luciferin mix consists of 50 mM HEPES, pH 7.8, 8.5 μg/mL oxalic acid (pH 7.8), 5 (or 50) mM DTT, 0.4% Triton X-100, 0.25 mg/mL coenzyme A, 63 μM AMP, 28 μg/mL luciferin and 40,000 units of light/mL luciferase.
Consumption of ATP by ALK can thus be quantified and utilized as a measure of inhibition of ALK activity by compounds described herein. By employing serial dilutions of compounds to be tested, the ability of test compounds to inhibit ALK activity can be determined.
The term IC50 denotes the concentration that inhibits the measured activity by half. Read a high IC50 as a need for much substance. Consider `COc1cc2c(-c3ccc(O)cc3)nc3[nH]nc(C)c3c2cc1OCC1CCN(C)CC1` [Example 65, 4-(1-methyl-7-(methyloxy)-8-{[(1-methylpiperidin-4-yl)methyl]oxy}-3H-pyrazolo[3,4-c]isoquinolin-5-yl)phenol], for which the IC50 was ≤ 99 nM.
`COc1cc2c(cc1C)c(-c1ccc(O)cc1)nc1[nH]nc(C)c12` [Example 66, 4-[1,7-dimethyl-8-(methyloxy)-3H-pyrazolo[3,4-c]isoquinolin-5-yl]phenol]: the IC50 was ≤ 99 nM.
For `COc1cc2c(-c3ccc(O)cc3)nc3[nH]nc(C4CCN(C(=O)OC(C)(C)C)CC4)c3c2cc1OC` [Example 67, 1,1-dimethylethyl 4-[5-(4-hydroxyphenyl)-7,8-bis(methyloxy)-3H-pyrazolo[3,4-c]isoquinolin-1-yl]piperidine-1-carboxylate] the value was 100 to 999 nM.
In the case of `COc1ccc2c(-c3ccc(O)c(Cl)c3)nc3[nH]nc(C)c3c2c1OC` [Example 69, 2-chloro-4-[1-methyl-8,9-bis(methyloxy)-3H-pyrazolo[3,4-c]isoquinolin-5-yl]phenol] it was ≤ 99 nM; in that of `COc1ccc2c(-c3ccc(O)c(F)c3)nc3[nH]nc(C)c3c2c1OC` [Example 70, 2-fluoro-4-[1-methyl-8,9-bis(methyloxy)-3H-pyrazolo[3,4-c]isoquinolin-5-yl]phenol], ≤ 99 nM; in that of `COc1ccc2c(-c3ccc(O)c(C)c3)nc3[nH]nc(C)c3c2c1OC` [Example 71, 2-methyl-4-[1-methyl-8,9-bis(methyloxy)-3H-pyrazolo[3,4-c]isoquinolin-5-yl]phenol], ≤ 99 nM.
For `COc1ccc2c(-c3ccc(O)c(Br)c3)nc3[nH]nc(C)c3c2c1OC` [Example 72, 2-bromo-4-[1-methyl-8,9-bis(methyloxy)-3H-pyrazolo[3,4-c]isoquinolin-5-yl]phenol] the value was ≤ 99 nM; for `COc1cc2c(-c3ccc(O)c(OC(F)F)c3)nc3[nH]nc(C)c3c2cc1OC` [Example 76, 2-[(difluoromethyl)oxy]-4-[1-methyl-7,8-bis(methyloxy)-3H-pyrazolo[3,4-c]isoquinolin-5-yl]phenol], 1000 to 2000 nM; for `COc1ccc2c(-c3ccc(O)cc3)nc3[nH]nc(C)c3c2c1C` [Example 78, 4-[1,9-dimethyl-8-(methyloxy)-3H-pyrazolo[3,4-c]isoquinolin-5-yl]phenol], ≤ 99 nM.
As to `COc1cc(F)c2c(-c3ccc(O)cc3)nc3[nH]nc(C)c3c2c1F` [Example 79, 4-[6,9-difluoro-1-methyl-8-(methyloxy)-3H-pyrazolo[3,4-c]isoquinolin-5-yl]phenol], the IC50 is ≤ 99 nM.
Turning to `COc1ccc2c(-c3ccc(O)c(Br)c3)nc3[nH]nc(C)c3c2c1OCCN1CCOCC1` [Example 80, 2-bromo-4-{1-methyl-8-(methyloxy)-9-[(2-morpholin-4-ylethyl)oxy]-3H-pyrazolo[3,4-c]isoquinolin-5-yl}phenol], the IC50 lay in the range of 100 to 999 nM.
In the case of `COc1ccc2c(-c3ccc(O)c(Cl)c3)nc3[nH]nc(C)c3c2c1OCCN1CCOCC1` [Example 81, 2-chloro-4-{1-methyl-8-(methyloxy)-9-[(2-morpholin-4-ylethyl)oxy]-3H-pyrazolo[3,4-c]isoquinolin-5-yl}phenol] it was 100 to 999 nM; in that of `COc1cc2c(-c3ccc(O)cc3)nc3[nH]nc(CNCc4ccccc4)c3c2cc1OC` [Example 82, 4-(7,8-bis(methyloxy)-1-{[(phenylmethyl)amino]methyl}-3H-pyrazolo[3,4-c]isoquinolin-5-yl)phenol], 100 to 999 nM.
In the case of `COc1cc2c(-c3cc(C)c(O)cc3C)nc3[nH]nc(C)c3c2cc1OC` [Example 83, 2,5-dimethyl-4-[1-methyl-7,8-bis(methyloxy)-3H-pyrazolo[3,4-c]isoquinolin-5-yl]phenol] it was 100 to 999 nM; in that of `COc1cc2c(-c3cc(Cl)c(O)cc3Cl)nc3[nH]nc(C)c3c2cc1OC` [Example 85, 2,5-dichloro-4-[1-methyl-7,8-bis(methyloxy)-3H-pyrazolo[3,4-c]isoquinolin-5-yl]phenol], ≤ 99 nM; in that of `COc1ccc2c(-c3ccc(O)c(Br)c3)nc3[nH]nc(C)c3c2c1OCC1CCN(C)CC1` [Example 87, 2-bromo-4-(1-methyl-8-(methyloxy)-9-{[(1-methylpiperidin-4-yl)methyl]oxy}-3H-pyrazolo[3,4-c]isoquinolin-5-yl)phenol], ≤ 99 nM.
In the case of `COc1cc2c(-c3ccc(O)c(Cl)c3)nc3[nH]nc(C)c3c2cc1OCC1CCN(C)CC1` [Example 88, 2-chloro-4-(1-methyl-7-(methyloxy)-8-{[(1-methylpiperidin-4-yl)methyl]oxy}-3H-pyrazolo[3,4-c]isoquinolin-5-yl)phenol] it was ≤ 99 nM; in that of `COc1ccc2c(-c3ccc(O)cc3)nc3[nH]nc(C)c3c2c1F` [Example 89, 4-[9-fluoro-1-methyl-8-(methyloxy)-3H-pyrazolo[3,4-c]isoquinolin-5-yl]phenol], ≤ 99 nM; in that of `COCCOc1c(OC)ccc2c(-c3ccc(O)cc3)nc3[nH]nc(C)c3c12` [Example 90, 4-(1-methyl-8-(methyloxy)-9-{[2-(methyloxy)ethyl]oxy}-3H-pyrazolo[3,4-c]isoquinolin-5-yl)phenol], ≤ 99 nM.
As to `COc1ccc2c(-c3ccc(O)c(Cl)c3)nc3[nH]nc(C)c3c2c1OCC1CCN(C)CC1` [Example 91, 2-chloro-4-(1-methyl-8-(methyloxy)-9-{[(1-methylpiperidin-4-yl)methyl]oxy}-3H-pyrazolo[3,4-c]isoquinolin-5-yl)phenol], the IC50 is ≤ 99 nM.
In the case of `COc1cc2c(c(-c3ccc(O)cc3)nc3[nH]nc(C)c32)c(Br)c1C` [Example 92, 4-[6-bromo-1,7-dimethyl-8-(methyloxy)-3H-pyrazolo[3,4-c]isoquinolin-5-yl]phenol] it was ≤ 99 nM; in that of `COc1cc2c(c(-c3ccc(O)cc3)nc3[nH]nc(C)c32)c(F)c1OC` [Example 93, 4-[6-fluoro-1-methyl-7,8-bis(methyloxy)-3H-pyrazolo[3,4-c]isoquinolin-5-yl]phenol], ≤ 99 nM; in that of `COc1c(C)cc2c(-c3ccc(O)cc3)nc3[nH]nc(C)c3c2c1Cl` [Example 94, 4-[9-chloro-1,7-dimethyl-8-(methyloxy)-3H-pyrazolo[3,4-c]isoquinolin-5-yl]phenol], ≤ 99 nM.
As for `CCN1CCC(COc2cc3c(cc2OC)c(-c2ccc(O)c(Cl)c2)nc2[nH]nc(C)c23)CC1` [Example 95, 2-chloro-4-[8-{[(1-ethylpiperidin-4-yl)methyl]oxy}-1-methyl-7-(methyloxy)-3H-pyrazolo[3,4-c]isoquinolin-5-yl]phenol], the IC50 is ≤ 99 nM.
For `COc1cc2c(-c3ccc(O)cc3Cl)nc3[nH]nc(C)c3c2cc1OC` [Example 96, 3-chloro-4-[1-methyl-7,8-bis(methyloxy)-3H-pyrazolo[3,4-c]isoquinolin-5-yl]phenol] the value was ≤ 99 nM; for `COCCOc1ccc2c(-c3ccc(O)cc3)nc3[nH]nc(C)c3c2c1OCCOC` [Example 97, 4-(1-methyl-8,9-bis{[2-(methyloxy)ethyl]oxy}-3H-pyrazolo[3,4-c]isoquinolin-5-yl)phenol], ≤ 99 nM; for `Cc1n[nH]c2nc(-c3ccc(O)cc3)c3ccccc3c12` [Example 98, 4-(1-methyl-3H-pyrazolo[3,4-c]isoquinolin-5-yl)phenol], ≤ 99 nM.
For `Cc1n[nH]c2nc(-c3ccc(O)c(Cl)c3)c3ccccc3c12` [Example 99, 2-chloro-4-(1-methyl-3H-pyrazolo[3,4-c]isoquinolin-5-yl)phenol] the value was ≤ 99 nM.
In the case of `Cc1n[nH]c2nc(-c3ccc(O)c(Br)c3)c3ccccc3c12` [Example 100, 2-bromo-4-(1-methyl-3H-pyrazolo[3,4-c]isoquinolin-5-yl)phenol] it was ≤ 99 nM.
Turning to `COc1cc2c(cc1C)c(-c1ccc(O)c(Cl)c1)nc1[nH]nc(C)c12` [Example 101, 2-chloro-4-[1,7-dimethyl-8-(methyloxy)-3H-pyrazolo[3,4-c]isoquinolin-5-yl]phenol], the IC50 was ≤ 99 nM.
In the case of `COc1cc2c(cc1C)c(-c1ccc(O)c(Br)c1)nc1[nH]nc(C)c12` [Example 102, 2-bromo-4-[1,7-dimethyl-8-(methyloxy)-3H-pyrazolo[3,4-c]isoquinolin-5-yl]phenol] it was ≤ 99 nM; in that of `COc1cc2c(-c3ccc(O)c(Cl)c3)nc3[nH]nc(C)c3c2cc1OCC1CCN(C(C)C)CC1` [Example 103, 2-chloro-4-[1-methyl-8-({[1-(1-methylethyl)piperidin-4-yl]methyl}oxy)-7-(methyloxy)-3H-pyrazolo[3,4-c]isoquinolin-5-yl]phenol], ≤ 99 nM.
In the case of `COc1ccc2c(-c3ccc(O)cc3)nc3[nH]nc(C)c3c2c1Br` [Example 104, 4-[9-bromo-1-methyl-8-(methyloxy)-3H-pyrazolo[3,4-c]isoquinolin-5-yl]phenol] it was ≤ 99 nM; in that of `COc1c(Cl)cc2c(-c3ccc(O)cc3)nc3[nH]nc(C)c3c2c1F` [Example 105, 4-[7-chloro-9-fluoro-1-methyl-8-(methyloxy)-3H-pyrazolo[3,4-c]isoquinolin-5-yl]phenol], 100 to 999 nM.

The values are drawn from patent US7872014B2, “Anaplastic lymphoma kinase modulators and methods of use” (Exelixis, Inc., priority 2003, dated 2011).
